Where two headings read alike, the source gives them in different places. Starred links: 1 amine or outer side, 2 acyl side, 3 side chain; linkers in the order of their positions; H or OH if unused. Non-standard residues stand in square brackets, D forms with d. Groups on a side chain read outwards from the residue. *: point of attachment. Butyryl(4-SO2NHCO(CH2)16Tz) = O=C(CCCCCCCCCCCCCCCCc1nnn[nH]1)NS(=O)(=O)CCCC(=O)*; C20 diacid = O=C(O)CCCCCCCCCCCCCCCCCCC(=O)*; C18 diacid = O=C(O)CCCCCCCCCCCCCCCCC(=O)*; C16 diacid = O=C(O)CCCCCCCCCCCCCCC(=O)*; γGlu = O=C(O)[C@H](CCC(=O)[*:2])N[*:1]; εLys = N[C@@H](CCCCN[*:1])C(=O)[*:2]; Trx = NC[C@H]1CC[C@H](C(=O)O)CC1; AEEA = NCCOCCOCC(=O)O; Aib = CC(C)(N)C(=O)O
How the values were obtained:
[1] = target: T1, human GLP-1 receptor (Homo sapiens, UniProt P43220); assay: Human GLP-1 receptor in vitro potency assay (CRE-luciferase reporter, BHK cells); assay type: cell-based
T1 construct: expressed in transfected cells; host or cells: BHK (Baby Hamster Kidney) cells, clone BHK 467-12A KZ-10, stably transfected, with CRE-luciferase reporter
T1 sequence (P43220 24-463): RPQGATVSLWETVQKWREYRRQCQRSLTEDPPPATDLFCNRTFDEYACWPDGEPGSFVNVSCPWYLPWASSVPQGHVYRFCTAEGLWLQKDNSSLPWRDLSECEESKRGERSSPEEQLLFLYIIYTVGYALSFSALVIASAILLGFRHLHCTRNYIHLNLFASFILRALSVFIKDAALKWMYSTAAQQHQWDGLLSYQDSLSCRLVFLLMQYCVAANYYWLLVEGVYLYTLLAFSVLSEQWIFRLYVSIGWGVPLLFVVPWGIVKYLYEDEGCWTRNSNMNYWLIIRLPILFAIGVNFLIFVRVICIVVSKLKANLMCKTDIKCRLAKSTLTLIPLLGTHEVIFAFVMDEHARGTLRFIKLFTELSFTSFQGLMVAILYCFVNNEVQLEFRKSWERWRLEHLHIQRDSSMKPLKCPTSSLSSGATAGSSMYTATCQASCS
Protocol: It is thus possible to measure GLP-1 receptor activity using a CRE-luciferase reporter gene introduced into Baby Hamster Kidney (BHK) cells co-expressing the GLP-1 receptor.
Cells were aliquoted and stored at -180° C. until use.
Plates were sealed and incubated at room temperature with gentle shaking for 30 minutes while protected from light. Luminescence was detected on a luminescence plate reader e.g. a Synergy 2 (BioTek).

[2] = target: T2, human amylin receptor (hAmyR3) (Homo sapiens, UniProt O60896+P30988); assay: Human amylin receptor in vitro potency assay (CRE-luciferase reporter, BHK cells); assay type: cell-based; settings: for EC50: read-out: Human AmyR3 potency [EC50 (pM)];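 on all read-outs here: BHK cells expressing human calcitonin receptor plus RAMP3 (amylin-3 receptor) with a CRE-luciferase reporter, agonist activity read as luminescence from cAMP-driven transcription, 7-point serial dilutions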
T2 construct: host or cells: BHK cells (Hollex-1 line: human calcitonin receptor (a) + CRE-Luc), further transfected with human RAMP3
T2 sequence (P30988 25-474): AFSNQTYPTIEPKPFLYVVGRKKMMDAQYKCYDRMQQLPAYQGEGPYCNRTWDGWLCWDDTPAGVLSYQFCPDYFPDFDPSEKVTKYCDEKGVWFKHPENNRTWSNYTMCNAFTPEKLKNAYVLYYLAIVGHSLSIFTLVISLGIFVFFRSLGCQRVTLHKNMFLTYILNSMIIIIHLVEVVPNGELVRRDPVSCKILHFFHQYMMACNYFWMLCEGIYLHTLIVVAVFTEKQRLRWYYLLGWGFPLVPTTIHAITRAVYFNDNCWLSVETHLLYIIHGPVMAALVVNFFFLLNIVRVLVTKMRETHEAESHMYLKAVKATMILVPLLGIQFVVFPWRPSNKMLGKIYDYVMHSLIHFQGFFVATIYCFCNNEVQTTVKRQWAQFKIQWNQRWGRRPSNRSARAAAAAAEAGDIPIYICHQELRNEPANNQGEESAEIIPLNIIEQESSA
T2 sequence (O60896 24-148): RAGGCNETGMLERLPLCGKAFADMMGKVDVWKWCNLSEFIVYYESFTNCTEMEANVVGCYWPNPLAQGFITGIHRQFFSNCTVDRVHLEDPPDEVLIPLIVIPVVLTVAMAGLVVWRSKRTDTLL

[3] = Table 4a, BHK cells expressing human GLP-1R, CRE-Luc, 3 hours, read-out: Human GLP-1R potency [EC50 (pM)]
[4] = Table 4a, BHK hAmyR3/CRE-Luc cells, 3 hours
[5] = Table 4c, further comparator compounds

| Substance | EC50 [1, 3] [pM] | EC50 [2, 4] [pM] | other results |
| --- | --- | --- | --- |
| H-H[Aib]EGTFTSDVSSYLEEQAAREFIEWLVRGK(Butyryl(4-SO2NHCO(CH2)16Tz))ASELSTAALGRLSAELHELATLPRTETGSGSP-NH2 [Compound 0147] | 36.8 | 33.7 | – |
| H-H[Aib]EGTFTSDVSSYLEEQAAREFIEWLVRGK(Butyryl(4-SO2NHCO(CH2)16Tz))GGGASELSTAALGRLSAELHELATLPRTETGSGSP-NH2 [Compound 0146] | 25.7 | 14 | – |
| H-H[Aib]EGTFTSDVSSYLEEQAAREFIEWLVRGRK([AEEA-AEEA-γGlu-Trx-C20 diacid])EAEAEASELSTAALGRLSAELHELATLPRTETGSGSP-NH2 [Compound 0179] | 8.8 | 35.9 | – |
| H-H[Aib]EGTFTSDVSSYLEEQAAREFIEWLVRGRK([εLys-AEEA-AEEA-γGlu-Trx-C20 diacid])EASELSTAALGRLSAELHELATLPRTETGSGSP-NH2 [Compound 0438] | 11.8 | 27.5 | – |
| H-H[Aib]EGTFTSDVSSYLEEQAARK(Butyryl(4-SO2NHCO(CH2)16Tz))FIAWLVRGRGEASELSTAALGRLSAELHELATLPRTETGSGSP-NH2 [Compound 0125] | 8 | 12.2 | – |
| H-H[Aib]EGTFTSDVSSYLEEQAARK([AEEA-AEEA-γGlu-C16 diacid])FIAWLVK([AEEA-AEEA-γGlu-C16 diacid])GRGGGEASELSTAALGRLSAELHELATLPRTETGSGSP-NH2 [Compound 0077] | 2.1 | 25.7 | – |
| H-H[Aib]EGTFTSDVSSYLEEQAARK([AEEA-AEEA-γGlu-C16 diacid])FIAWLVRGRGGGGGASELSTAALGRLSK([AEEA-AEEA-γGlu-C16 diacid])ELHELATLPRTETGSGSP-NH2 [Compound 0296] | 4 | 29.9 | – |
| H-H[Aib]EGTFTSDVSSYLEEQAARK([AEEA-AEEA-γGlu-C16 diacid])FIAWLVRGRGGGGGEASELSTAALGRLSAELHK([AEEA-AEEA-γGlu-C16 diacid])LATLPRTETGSGSP-NH2 [Compound 0509] | 7.1 | 29.9 | – |
| H-H[Aib]EGTFTSDVSSYLEEQAARK([AEEA-AEEA-γGlu-C16 diacid])FIEWLVRGK([AEEA-AEEA-γGlu-C16 diacid])GEGGEASELSTAALGRLSAELHELATLPRTETGSGSP-NH2 [Compound 0086] | 3.9 | 78.3 | – |
| H-H[Aib]EGTFTSDVSSYLEEQAARK([AEEA-AEEA-γGlu-C18 diacid])FIAWLVRGRGGGGGEASELSTAALGRLSAELHELATLPRTETGSGSP-NH2 [Compound 0639] | 1.5 | 4.6 | – |
| H-H[Aib]EGTFTSDVSSYLEEQAARK([AEEA-AEEA-γGlu-C18 diacid])FIEWLVRGK([AEEA-AEEA-γGlu-C18 diacid])GEGGEASELSTAALGRLSAELHELATLPRTETGSGSP-NH2 [Compound 0089] | 5.7 | 65.5 | – |
| H-H[Aib]EGTFTSDVSSYLEEQAARK([AEEA-AEEA-γGlu-C18 diacid])FIEWLVRGK([AEEA-AEEA-γGlu-C18 diacid])GGEASELSTAALGRLSAELHELATLPRTETGSGSP-NH2 [Compound 0128] | 9.7 | 110 | – |
| H-H[Aib]EGTFTSDVSSYLEEQAARK([AEEA-AEEA-γGlu-C18 diacid])FIEWLVRGRK([AEEA-AEEA-γGlu-C18 diacid])GGEASELSTAALGRLSAELHELATLPRTETGSGSP-NH2 [Compound 0129] | 1.2 | 23.5 | – |
| H-H[Aib]EGTFTSDVSSYLEEQAARK([AEEA-AEEA-γGlu-C20 diacid])FIAWLVRGRGGGGGEASELSTAALGRLSAELHELATLPRTETGSGSP-NH2 [Compound 0562] | 19.3 | 4.1 | – |
| H-H[Aib]EGTFTSDVSSYLEEQAARK([AEEA-AEEA-γGlu-C20 diacid])FIEWLVRGASELSTAALGRLSAELHELATLPRTETGSGSP-NH2 [Compound 0581] | 17 | 26.4 | – |
| H-H[Aib]EGTFTSDVSSYLEEQAARK([γGlu-C18 diacid])FIAWLVRGRGGGGGGGGK([γGlu-C18 diacid])EASELSTAALGRLSAELHELATLPRTETGSGSP-NH2 [Compound 0160] | 11.9 | 27.3 | – |
| H-H[Aib]EGTFTSDVSSYLEEQAARK([γGlu-γGlu-γGlu-γGlu-C20 diacid])FIAWLVRGRGGGGGEASELSTAALGRLSAELHELATLPRTETGSGSP-NH2 [Compound 0633] | 28.2 | 5.3 | – |

| Substance | EC50 [1, 3] [pM] | EC50 [2, 4] [pM] | other results |
| --- | --- | --- | --- |
| H-H[Aib]EGTFTSDVSSYLEGQAAK([AEEA-AEEA-γGlu-C18 diacid])EFIAWLVRGRGGGGEASELSTAALGRLSAELHELATLPRTETGSGSP-NH2 [Compound 0040] | 20.7 | 7.7 | – |
| H-H[Aib]EGTFTSDVSSYLEGQAAK([AEEA-AEEA-γGlu-C18 diacid])EFIAWLVRGRGGGGGGGGGGGGGEASELSTAALGRLSAELHELATLPRTETGSGSP-NH2 [Compound 0092] | 18.5 | 10.9 | – |
| H-H[Aib]EGTFTSDVSSYLEGQAAK([AEEA-AEEA-γGlu-C18 diacid])EFIAWLVRGRGGGGGGGGGGGGGGGGGEASELSTAALGRLSAELHELATLPRTETGSGSP-NH2 [Compound 0093] | 7.5 | 8.6 | – |
| H-H[Aib]EGTFTSDVSSYLEGQAAK([AEEA-AEEA-γGlu-C18 diacid])EFIAWLVRGRGGQEPGQEPEASELSTAALGRLSAELHELATLPRTETGSGSP-NH2 [Compound 0019] | 13.7 | 26.5 | – |
| H-H[Aib]EGTFTSDVSSYLEGQAAK([AEEA-AEEA-γGlu-C18 diacid])EFIAWLVRGRGQAPGQEPEASELSTAALGRLSAELHELATLPRTETGSGSP-NH2 [Compound 0156] | 22.6 | 22.6 | – |
| H-H[Aib]EGTFTSDVSSYLEGQAAK([AEEA-AEEA-γGlu-C18 diacid])EFIAWLVRGRGQEPGQAPEASELSTAALGRLSAELHELATLPRTETGSGSP-NH2 [Compound 0026] | 8.8 | 14 | – |
| H-H[Aib]EGTFTSDVSSYLEGQAAK([AEEA-AEEA-γGlu-C20 diacid])EFIAWLVRGRGGGGGGGGGEASELSTAALGRLSAELHELATLPRTETGSGSP-NH2 [Compound 0094] | 7.5 | 11.3 | – |
| H-H[Aib]EGTFTSDVSSYLEGQAAK([AEEA-AEEA-γGlu-C20 diacid])EFIAWLVRGRGQAPGQEPEASELSTAALGRLSAELHELATLPRTETGSGSP-NH2 [Compound 0157] | 28.7 | 18.4 | – |
| H-H[Aib]EGTFTSDVSSYLEGQAAK([AEEA-AEEA-γGlu-C20 diacid])EFIAWLVRGRGQEPGQAPEASELSTAALGRLSAELHELATLPRTETGSGSP-NH2 [Compound 0202] | 10.5 | 28.4 | – |
| H-H[Aib]EGTFTSDVSSYLEGQAAK([εLys-AEEA-AEEA-γGlu-C18 diacid])EFIAWLVRGRGGGGGGGGGEASELSTAALGRLSAELHELATLPRTETGSGSP-NH2 [Compound 0159] | 30.3 | 19.3 | – |
| H-H[Aib]EGTFTSDVSSYLEGQAAKEFIAWLVRGRK([εLys-AEEA-AEEA-γGlu-C18 diacid])GGEASELSTAALGRPSAELHELATLPRTETGSGSP-NH2 [Comparator compound 0185, reference compound] | – | – | EC50 [1, 5]: 13.1 pM; EC50 [2, 5]: 5660 pM; Ability to agonise the amylin receptor, in words ([2]; Tables 4a-4c): impaired their ability to agonise (activate) the amylin receptor |
| H-H[Aib]EGTFTSDVSSYLEGQAAKEIFAWLVRGRK([εLys-AEEA-AEEA-γGlu-C18 diacid])GGEASELSTAALGRLSAELHELATLPRTETGSGSP-NH2 [Comparator compound 0164, reference compound] | – | – | EC50 [1, 5]: 852 pM; Ability to agonise the GLP-1 receptor, in words ([1]; Tables 4a-4c): impaired their ability to agonise (activate) the GLP-1 receptor; EC50 [2, 5]: 29.6 pM |
| H-H[Aib]EGTFTSDVSSYLEGQAAREFIAWLVRGK([AEEA-AEEA-γGlu-C18 diacid])GEGEGEEASELSTAALGRLSAELHELATLPRTETGSGSP-NH2 [Compound 0009] | 7.9 | 49.5 | – |
| H-H[Aib]EGTFTSDVSSYLEGQAAREFIAWLVRGRGEGEGEK([AEEA-AEEA-γGlu-C18 diacid])EASELSTAALGRLSAELHELATLPRTETGSGSP-NH2 [Compound 0010] | 5.4 | 37 | – |
| H-H[Aib]EGTFTSDVSSYLEGQAAREFIAWLVRGRGQEPGQAPK([AEEA-AEEA-γGlu-C18 diacid])EASELSTAALGRLSAELHELATLPRTETGSGSP-NH2 [Compound 0085] | 2.2 | 55.8 | – |
| H-H[Aib]EGTFTSDVSSYLEGQAAREFIAWLVRGRGQEPK([AEEA-AEEA-γGlu-C18 diacid])GQAPASRLSTEALGRLSAELHELATLPRTETGSGSP-NH2 [Compound 0191] | 5.9 | 54.8 | – |
| H-H[Aib]EGTFTSDVSSYLEGQAAREFIAWLVRGRK([AEEA-AEEA-γGlu-C18 diacid])GQEPGQAPEASELSTAALGRLSAELHELATLPRTETGSGSP-NH2 [Compound 0083] | 5.4 | 46.2 | – |
